Measurements taken from US20180235870A1, “TRANSDERMAL FORMULATIONS FOR DELIVERY OF BERBERINE COMPOUNDS, AND THEIR USE IN THE TREATMENT OF BERBERINE-RESPONSIVE DISEASES AND CONDITIONS” (DELIVRA INC., priority 2015, published 2018).
Entries after “also recorded” stand apart in the source; their conditions may differ. Each block holds one compound with its values, some of them ahead of it.

Assays:
[1] = system: PCSK9 expression in HEPG2 cells; experiment: Berberine signaling in HEPG2: PCSK9 western blot of supernatant; format: cell-based, human; details: 24 hours; for expression of PCSK9 in supernatant (western blot): 25 to 3.125 ug/ml, versus negative control
Protocol: HEPG2 cells were cultured in 24 well plates to confluence in DMEM supplemented with 10% FBS. After reaching confluence, cells were incubated overnight with 0.1% FBS OPTIMEM for serum starvation. After serum starvation the cells were incubated with berberine, DHB, or THB in 0.1% FBS OPTIMEM using the following dose course: 25 ug/ml, 12.5 ug/ml 6.25 ug/ml 3.125 ug/ml for 24 hours. Supernatant was collected after stimulation and western blotted as follows:
(1) Resolved on 12.5% gel.
(3) Blocked with 3% BSA TBST (4) Rabbit anti PCSK9 (Cayman chemicals cat 10007185) at 1/600 in TTBS (5) Wash 3×5 min with TTBS (6) HRP-Goat anti-Rabbit 1/1000 (Cayman chemicals) (7) Wash 3×5 min with TTBS (8) Detection with ECL
Proprotein convertase subtilisin/kexin type 9 (PCSK9) post-transcriptionally downregulates the low-density lipoprotein receptor (LDLR) by binding to the receptor's epidermal growth factor repeat A on the cell surface and shuttling the LDLR to the lysosomes for degradation. […] Previous reports indicate that berberine has lipid lowering effects in both animal models and human trials (Arrigo F. G., Cicero, L., Rovati C. et al., 2007). The signalling effects of berberine, DHB, and THB were evaluated using the human liver cell line HEPG2. PCSK9, an enzyme that acts in cholesterol homeostasis, is expressed in HEPG2 cells and these cells have previously been used as a model of dyslipidemia. PCSK9 binds to LDL receptor causing uptake of LDL and the LDL receptor and targets both molecules for degradation upon internalization. In the absence of PCSK9, LDL and LDL receptor are still internalized, however, LDL receptor is not degraded but instead recycled to the cell surface resulting in more efficient uptake of circulating LDL.

[2] = Stability of synthetic derivatives DHB and THB in solution (UV/VIS); format: physicochemical; details: for stability over time (oxidation to berberine): several solvents
Source text: UV/VIS spectrometry is a useful tool for monitoring the conversion of DHB to berberine in solution. Several anti-oxidants and encapsulating agents were combined with DHB in solution to increase stability.

[3] = Solubility testing of berberine and dihydroberberine using various solvents; format: physicochemical
Protocol: Solubility was determined in a step-wise procedure that involved attempting to dissolve the berberine/DHB in the solvents at relatively high concentrations. […] Then the expected solvent was added to the berberine/DHB. The container was sonicated at RT or at 40C for 30 minutes. The following solvents were tested to dissolve the DHB. Dimethyl sulfoxide (Reagent Grade; […] Lot #STB[…]), and Glycerol tributyrate (Sigma T8626; Lot #BCBQ […]). […] The solubility was visually checked and state of solubility was recorded.

[4] = system: male Zucker rat, a model of type-2 diabetes and metabolic disorder; experiment: Effect of berberine, metformin and simvastatin on body mass, lipid biomarkers, food and water intake, clinical chemistry (Example 18); format: in vivo, obese male Zucker fa/fa rats; details: Zucker rats, Days 0 to 28
Protocol: All in vivo animal husbandry, treatment regiments, and sample collections were completed by InterVivo. The study was completed using obese male Zucker fa/fa rats (Charles River) at 10 weeks of age. […] Shaving was performed under anaesthesia one day prior to initiation of test article administration. The area was further shaven, as needed, over the course of the dosing period to ensure accurate drug application and absorption. For dosing procedures, animals were restrained and the transdermal test articles applied in a uniform layer over the entire shaved area. The shaved administration area was cleaned daily with paper towel before the subsequent transdermal dose was administered. Animals receiving test articles via oral gavage were restrained, and a ball-tipped gavage needle (18G) attached to a syringe containing the dosing solution was first inserted into the mouth, and then into the stomach. To determine the appropriate depth of insertion of the needle, the position corresponding to the last rib was measured prior to insertion. […] Group A), oral administration of berberine (180 mg/kg/dose; […] Group C), and oral administration of the vehicle (Group D) (Table 19). […] Group F), or with orally-administered metformin (200 mg/kg/dose; Group G). […] On Day 28, the animals were dosed in the morning only, prior to euthanasia and tissue collection. Animal body weights were performed once weekly from Day −34 to −2 and daily from Day −1 to 28. Rats were weighed, and the scales were operated and maintained, according to standard operating procedures. Food and water consumption measurements were taken over a 24 hour period, once weekly, from Days 0 to 28. Blood was collected via tail nick on Day-1 to determine unfasted blood glucose level for group allocation. Whole blood was collected via the saphenous vein or other appropriate route on Days 0, 7, 14, 21 and 28 immediately prior to test article administration. […] On Day 28, subjects were anaesthetized with isoflurane, and whole blood was collected via cardiac puncture 2.5 hours (+/−5 minutes) following treatment administration on this day. […]

[5] = system: male Zucker fa/fa rat, a model of type 2 diabetes and metabolic disorder; experiment: Efficacy of transdermal berberine alone and in combination with pharmaceuticals in a model of metabolic syndrome (Example 19); format: in vivo, obese male Zucker fa/fa rats; details: Zucker fa/fa rats
Protocol: Fourteen obese male Zucker fa/fa rats at 5 weeks of age were housed for five weeks to the age of 10 weeks. During these five weeks, body weight measurements were taken once a week and once daily health observations were conducted for all animals. […] On Day 28, serum and whole liver was collected. […] Food and water intake measurements were taken once a week during the study period of Day 0 to Day 28. […] A sufficient amount of test article was supplied and formulated. Test article product was administered at a dose of 3.6 g/kg twice a day (e.g. […] Berberine cream was weighed fresh daily at each AM and PM dosing to avoid desiccation of the test article. Daily PO and TD dosing of the test articles took place between the hours of 08:00 to 10:00 and 16:00 to 18:00 for 7 days a week between Day 0 to 27. […] The exact time of dosing (up to the minute) was recorded for each animal on the daily dosing sheets. […] Remaining dosing solutions were stored at 4° C. between dosing periods. […] The animals shaved underwemt gaseous anaesthetic according to SOP ROD28.01 to ensure accuracy and avoid undue stress of the animal. The area was further shaven as needed over the course of the dosing period to ensure accurate drug application and absorption. At dosing, the animals were restrained and the transdermal test articles were applied in a uniform layer over the entire shaved area. […] PTS3028).

[6] = Plasma concentrations of berberine, berberine glucuronide, simvastatin and simvastatin hydroxy acid in rats (Example 20); format: in vivo; details: rats (n=2); oral simvastatin 6 mg/kg/dose
[7] = averaged over the entire experiment

oxidation of DHB to berberine on addition of ascorbic acid or cyclodextrin ([2]; UV/VIS): significantly slowed
Dissolving Capability ([3]; Acetone, sonication 40 C.): 25.0 mg/mL
Dissolving Capability ([3]; Acetone, sonication RT): 12.5 mg/mL
Dissolving Capability ([3]; Dimethyl sulfoxide (DMSO), sonication 40 C.): 50.0 mg/mL
Dissolving Capability ([3]; Dimethyl sulfoxide (DMSO), sonication RT): 25.0 mg/mL
Dissolving Capability ([3]; Ethanol, sonication 40 C.): 2.5 mg/mL
Dissolving Capability ([3]; Ethanol, sonication RT): 1.0 mg/mL
Dissolving Capability ([3]; Glycerol tributyrate, sonication 40 C.): 75 to 250 mg/mL
Dissolving Capability ([3]; Glycerol tributyrate, sonication RT): 10 mg/mL
Dissolving Capability ([3]; Hexylene glycol, sonication 40 C.): 1.0 mg/mL
Dissolving Capability ([3]; Hexylene glycol, sonication RT): 0.5 mg/mL
Dissolving Capability ([3]; Isopropyl myristate, sonication 40 C.): 75 to 250 mg/mL
Dissolving Capability ([3]; Isopropyl myristate, sonication RT): 10 mg/mL
Dissolving Capability ([3]; Isosorbid-dimethyl ether 98%, sonication 40 C.): 250 mg/mL
Dissolving Capability ([3]; Isosorbid-dimethyl ether 98%, sonication 40 C., listed as Dihydroberberine): 250 mg/mL
Dissolving Capability ([3]; Isosorbid-dimethyl ether 98%, sonication RT): 25.0 mg/mL
Dissolving Capability ([3]; Mineral oil, sonication 40 C.): 4.0 mg/mL
Dissolving Capability ([3]; Mineral oil, sonication RT): 2.0 mg/mL
Dissolving Capability ([3]; Oleyl alcohol, sonication 40 C., listed as Dihydroberberine): 50 mg/mL
Dissolving Capability ([3]; Oleyl alcohol, sonication 40 C., listed as dihydroberberine): 50.0 mg/mL
Dissolving Capability ([3]; Oleyl alcohol, sonication RT): 12.5 mg/mL
Dissolving Capability ([3]; Propanediol, sonication 40 C.): 2.5 mg/mL
Dissolving Capability ([3]; Propanediol, sonication RT): 1.0 mg/mL
Dissolving Capability ([3]; Trivalin, sonication 40 C.): 5.0 mg/mL
Dissolving Capability ([3]; Trivalin, sonication RT): 2.5 mg/mL
Dissolving Capability ([3]; Water, sonication 40 C.): 1.0 mg/mL
Dissolving Capability ([3]; Water, sonication RT): 0.5 mg/mL
Structure (SMILES): COc1ccc2c(c1OC)CN1CCc3cc4c(cc3C1=C2)OCO4 [DHB, dihydroberberine]
concentration down to which expression of PCSK9 was reduced [1]: 6.25 µg/mL
expression of PCSK9 in supernatant (western blot) [1]: down-regulate the expression of PCSK9; also recorded: reduce the expression of PCSK9
stability over time (oxidation to berberine) [2]: prone to oxidation to provide berberine after a short time

Structure (SMILES): CN(C)C(=N)N=C(N)N [Metformin]
HbA1c (in words) [4]: largest reduction in HbA1c
rate of weight gain (grams/day) ([5]; BID, Day 0 to 28, n=2): 3.3 grams/day
overall triglyceride levels (mmol/L+/−SEM) ([5]; averaged for the entire experiment): 15.1 ± 0.4 mmol/L
overall HbA1c level change (mmol/mmol+/−SEM) [5, 7]: 34.3+/−0.4 mmol/mmol
overall average food intake (grams+/−SEM) [5, 7]: 33.4+/−0.7 grams
overall cholesterol level change (mmol/L+/−SEM) [5, 7]: 5.0 ± 0.4 mmol/L
overall average glucose change (%+/−SEM) ([5]; non-fasting glucose, averaged over the entire experiment): 5.9+/−5.9%

systemic simvastatin concentration [6]: 1.83 ng/mL
Structure (SMILES): CCC(C)(C)C(=O)O[C@H]1C[C@@H](C)C=C2C=C[C@H](C)[C@H](CC[C@@H]3C[C@@H](O)CC(=O)O3)[C@H]21 [Simvastatin]

Structure (SMILES): COc1ccc2c(c1OC)CN1CCc3cc4c(cc3C1C2)OCO4 (stereo not shown) [THB, tetrahydroberberine]
expression of PCSK9 in supernatant (western blot) [1]: did not affect expression of PCSK9; also recorded: did not appear to reduce expression of PCSK9
stability over time (oxidation to berberine) [2]: excellent stability in several solvents
